In patent publication US12091411B2, “IRAK degraders and uses thereof” (Kymera Therapeutics, Inc., priority 2022, dated 2024) one finds DC50 data, which are given here for 27 molecules.

Like-named read-outs stand apart in the source and are kept apart here.

The target in the assay is T1, IRAK4 (Homo sapiens, UniProt Q9NWZ3).
T1 construct: Degradation of IRAK4 in OCI-LY10 was quantitatively measured using Meso Scale Discovery technology; endogenous in cells; host or cells: OCI-LY10
T1 sequence (Q9NWZ3 1-460): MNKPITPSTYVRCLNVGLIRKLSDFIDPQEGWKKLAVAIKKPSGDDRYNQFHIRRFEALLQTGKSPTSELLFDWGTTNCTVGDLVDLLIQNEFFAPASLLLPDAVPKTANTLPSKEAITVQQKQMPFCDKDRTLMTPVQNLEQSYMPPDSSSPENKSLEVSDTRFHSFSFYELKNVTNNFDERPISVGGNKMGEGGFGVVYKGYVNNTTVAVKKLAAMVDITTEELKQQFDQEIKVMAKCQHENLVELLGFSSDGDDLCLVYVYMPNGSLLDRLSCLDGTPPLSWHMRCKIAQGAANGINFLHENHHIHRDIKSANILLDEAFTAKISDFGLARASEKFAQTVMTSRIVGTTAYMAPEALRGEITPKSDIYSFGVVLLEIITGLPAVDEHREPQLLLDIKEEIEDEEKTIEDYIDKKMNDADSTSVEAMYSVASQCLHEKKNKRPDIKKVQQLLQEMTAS
Put plainly: IRAK4 MSD Degradation in OCI-LY10. The class given is cell-based. The settings on record: OCI-LY10 cells, MSD. The method, then:
Degradation of IRAK4 in OCI-LY10 was quantitatively measured using Meso Scale Discovery technology. […] Compounds were then added to the assay plates with a final top concentration of 1 to 10 μM in a 1:3 dilution series with total of 8 doses. The assay plates were then incubated for 4 to 24 hours at 37° C. under 5% CO2. […] To prepare MSD assay plates (Meso Scale Discovery Catalog number L15XA-3), the plates were coated with 2 μg/mL capture antibody (mouse Anti-IRAK4 antibody [2H9], ab119942) in PBS, at 40 μL/well. […] Cell lysates were then added to MSD assay plates and the plates were incubated at room temperature for 1 hour. The plates were then washed 3 times with 150 μL/well TBST buffer and 25 μL/well primary detection antibody (rabbit Anti-IRAK4 antibody [Y279], from Abcam. Catalog number ab32511, 1 μg/mL). The assay plates were then incubated at room temperature for 1 hour, washed 3 times with 150 μL/well TBST buffer and 25 μL/well secondary detection antibody, SULFO-TAG anti-rabbit antibody were added (anti-rabbit antibody from Meso Scale Discovery, Catalog number R32AB-1, 1 μg/mL). The assay plates were then incubated at room temperature for 1 hour, washed 3 times with 150 μL/well TBST buffer, and 150 μL/well MSD reading buffer (Meso Scale Discovery catalog number R92TC-2) was added. The plates were then analyzed by a MSD reader (Meso Scale Discovery, Model Quick Plex SQ 120). The data was then analyzed by software Prism 7.0 from GraphPad and the dose-depended IRAK4 degradation were fit using a three-parameter logistic equation to calculate DC50.
The letter codes for IRAK4 DC50 include: A (<0.01 μM); B (0.01 to <0.1 μM); C (0.1 to 0.2 μM); and D (>0.2 μM or not tested).

Setting [1] is: 4 hrs incubation, read-out: IRAK4 degradation in OCI-LY10 at 4 hrs: DC50.
The mark [2] stands for this setting: 24 hrs incubation, read-out: IRAK4 degradation in OCI-LY10 at 24 hrs: DC50.

Broadly, the DC50 is the concentration at which degradation of the target reaches its halfway point. With `Cn1c(=O)n(C2CCC(=O)NC2=O)c2cccc(C#CCOC3C[C@H]4CC[C@@H](C3)N4C[C@H]3CC[C@H](n4cc(NC(=O)c5cnn6ccc(N7C[C@H]8C[C@@H]7CO8)nc56)c(C(F)F)n4)CC3)c21` (stereo partly drawn) [I-12], the DC50 runs as follows: under setting [1], greater than 200 nM; under setting [2], greater than 200 nM.
Turning to `CN(C[C@H]1CC[C@H](n2cc(NC(=O)c3cnn4cccnc34)c(C(F)F)n2)CC1)C1CCN(c2cccc3c(N4CCC(=O)NC4=O)cncc23)CC1` [I-13], the DC50 was greater than 200 nM under setting [1] and greater than 200 nM under setting [2].
Regarding `Cn1c(=O)n(C2CCC(=O)NC2=O)c2cccc(C#CCC3CCN(C[C@H]4CC[C@H](n5cc(NC(=O)c6cnn7ccc(N8C[C@H]9CC8CO9)nc67)c(C(F)F)n5)CC4)CC3)c21` (stereo partly drawn) [I-15], the 50% degradation concentration (DC50) by setting is: under setting [1], greater than 200 nM; under setting [2], greater than 200 nM.
On to `Cn1c(=O)n(C2CCC(=O)NC2=O)c2cccc(C#CCCOC3CCN(C[C@H]4CC[C@H](n5cc(NC(=O)c6cnn7ccc(N8C[C@H]9C[C@@H]8CO9)nc67)c(C(F)F)n5)CC4)CC3)c21` (stereo partly drawn) [I-16], for which the half-maximal degradation concentration (DC50) is, setting by setting: under setting [1], less than 10 nM; under setting [2], greater than 200 nM.
The matching figures for `Cn1c(=O)n(C2CCC(=O)NC2=O)c2cccc(C#CC3CCCN(C[C@H]4CC[C@H](n5cc(NC(=O)c6cnn7ccc(N8C[C@H]9C[C@@H]8CO9)nc67)c(C(F)F)n5)CC4)C3)c21` (stereo partly drawn) [I-17]: 10 to 100 nM and greater than 200 nM.
On to `Cn1c(=O)n(C2CCC(=O)NC2=O)c2cccc(C#CCOC3CCN(C[C@H]4CC[C@H](n5cc(NC(=O)c6cnn7ccc(N8C[C@H]9C[C@@H]8CO9)nc67)c(C(F)F)n5)CC4)CC3(F)F)c21` (stereo partly drawn) [I-18], for which the DC50 reads like this: under setting [1], 10 to 100 nM; under setting [2], greater than 200 nM.
Taken in the same sequence, the figures for `Cn1c(=O)n(C2CCC(=O)NC2=O)c2cccc(C#CCOC3CC4CC3CN4C[C@H]3CC[C@H](n4cc(NC(=O)c5cnn6ccc(N7C[C@H]8C[C@@H]7CO8)nc56)c(C(F)F)n4)CC3)c21` (stereo partly drawn) [I-19] were 100 to 200 nM and greater than 200 nM.
Take `Cn1c(=O)n(C2CCC(=O)NC2=O)c2cccc(C#CCOC3CN(C[C@H]4CC[C@H](n5cc(NC(=O)c6cnn7ccc(N8C[C@H]9C[C@@H]8CO9)nc67)c(C(F)F)n5)CC4)C3)c21` (stereo partly drawn) [I-20]: the DC50 under setting [1] is less than 10 nM and the DC50 under setting [2] is greater than 200 nM.
The matching figures for `Cn1c(=O)n(C2CCC(=O)NC2=O)c2cccc(C#CCO[C@H]3CCN(C[C@H]4CC[C@H](n5cc(NC(=O)c6cnn7ccc(N8C[C@H]9C[C@@H]8CO9)nc67)c(C(F)F)n5)CC4)C3)c21` (stereo partly drawn) [I-21]: less than 10 nM and greater than 200 nM.
The matching figures for `Cn1c(=O)n(C2CCC(=O)NC2=O)c2cccc(C#CCO[C@@H]3CCN(C[C@H]4CC[C@H](n5cc(NC(=O)c6cnn7ccc(N8C[C@H]9C[C@@H]8CO9)nc67)c(C(F)F)n5)CC4)C[C@@H]3F)c21` (stereo partly drawn) [I-22]: 10 to 100 nM and greater than 200 nM.
Taken in the same sequence, the figures for `Cn1c(=O)n(C2CCC(=O)NC2=O)c2cccc(C#CCO[C@H]3CCN(C[C@H]4CC[C@H](n5cc(NC(=O)c6cnn7ccc(N8C[C@H]9C[C@@H]8CO9)nc67)c(C(F)F)n5)CC4)C[C@@H]3F)c21` (stereo partly drawn) [I-23] were 10 to 100 nM and greater than 200 nM.
In the case of `Cn1c(=O)n(C2CCC(=O)NC2=O)c2cccc(C#CCO[C@@H]3CCN(C[C@H]4CC[C@H](n5cc(NC(=O)c6cnn7ccc(N8C[C@H]9C[C@@H]8CO9)nc67)c(C(F)F)n5)CC4)C3)c21` (stereo partly drawn) [I-24], the 50% degradation concentration (DC50) under setting [1] lay in the range of 10 to 100 nM and the DC50 under setting [2] was greater than 200 nM.
For the molecule `C[C@H]1CN(C[C@H]2CC[C@H](n3cc(NC(=O)c4cnn5ccc(N6C[C@H]7C[C@@H]6CO7)nc45)c(C(F)F)n3)CC2)CC[C@@H]1OCC#Cc1cccc2c1n(C)c(=O)n2C1CCC(=O)NC1=O` (stereo partly drawn) [I-25], the DC50 by setting is: under setting [1], 10 to 100 nM; under setting [2], less than 10 nM.
Taken in the same sequence, the figures for `C[C@H]1CN(C[C@H]2CC[C@H](n3cc(NC(=O)c4cnn5ccc(N6C[C@H]7C[C@@H]6CO7)nc45)c(C(F)F)n3)CC2)CC[C@H]1OCC#Cc1cccc2c1n(C)c(=O)n2C1CCC(=O)NC1=O` (stereo partly drawn) [I-26] were 10 to 100 nM and greater than 200 nM.
The matching figures for `Cn1c(=O)n(C2CCC(=O)NC2=O)c2cccc(C#CC3CN(C[C@H]4CC[C@H](n5cc(NC(=O)c6cnn7ccc(N8C[C@H]9C[C@@H]8CO9)nc67)c(C(F)F)n5)CC4)CCO3)c21` (stereo partly drawn) [I-27]: 10 to 100 nM and greater than 200 nM.
Turning to `Cn1c(=O)n(C2CCC(=O)NC2=O)c2cccc(C#CCOC3CCN(C[C@H]4C[C@H](n5cc(NC(=O)c6cnn7ccc(N8C[C@H]9C[C@@H]8CO9)nc67)c(C(F)F)n5)C4)CC3)c21` (stereo partly drawn) [I-28], the DC50 is less than 10 nM under setting [1] and greater than 200 nM under setting [2].
Taken in the same sequence, the figures for `C[C@H]1C[C@@H](OCC#Cc2cccc3c2n(C)c(=O)n3C2CCC(=O)NC2=O)CCN1C[C@H]1CC[C@H](n2cc(NC(=O)c3cnn4ccc(N5C[C@H]6C[C@@H]5CO6)nc34)c(C(F)F)n2)CC1` (stereo partly drawn) [I-29] were less than 10 nM and greater than 200 nM.
The matching figures for `Cn1c(=O)n(C2CCC(=O)NC2=O)c2cccc(C#CCOC3C4CC3CN(C[C@H]3CC[C@H](n5cc(NC(=O)c6cnn7ccc(N8C[C@H]9C[C@@H]8CO9)nc67)c(C(F)F)n5)CC3)C4)c21` (stereo partly drawn) [I-30]: 10 to 100 nM and greater than 200 nM.
Consider `Cn1c(=O)n(C2CCC(=O)NC2=O)c2cccc(C#CCN3CCN(C[C@H]4CC[C@H](n5cc(NC(=O)c6cnn7ccc(N8C[C@H]9C[C@@H]8CO9)nc67)c(C(F)F)n5)CC4)CC3)c21` (stereo partly drawn) [I-31, N-[3-(difluoromethyl)-1-[4-[[4-[3-[1-(2,6-dioxo-3-piperidyl)-3-methyl-2-oxo-benzimidazol-4-yl]prop-2-ynyl]piperazin-1-yl]methyl]cyclohexyl]pyrazol-4-yl]-5-[(1R,4R)-2-oxa-5-azabicyclo[2.2.1]heptan-5-yl]pyrazolo[1,5-a]pyrimidine-3-carboxamide], for which the DC50 is less than 10 nM under setting [1] and greater than 200 nM under setting [2].
The matching figures for `C[C@@H]1C[C@@H](OCC#Cc2cccc3c2n(C)c(=O)n3C2CCC(=O)NC2=O)CCN1C[C@H]1CC[C@H](n2cc(NC(=O)c3cnn4ccc(N5C[C@H]6C[C@@H]5CO6)nc34)c(C(F)F)n2)CC1` (stereo partly drawn) [I-33]: less than 10 nM and greater than 200 nM.
For `Cn1c(=O)n(C2CCC(=O)NC2=O)c2cccc(C#CCO[C@@H]3CCN(C[C@H]4CC[C@H](n5cc(NC(=O)c6cnn7ccc(N8C[C@H]9C[C@@H]8CO9)nc67)c(C(F)F)n5)CC4)C[C@@H]3F)c21` (stereo partly drawn) [I-35], the DC50 is, setting by setting: under setting [1], 10 to 100 nM; under setting [2], greater than 200 nM.
Taken in the same sequence, the figures for `Cn1c(=O)n(C2CCC(=O)NC2=O)c2cccc(C#CCO[C@H]3CCN(C[C@H]4CC[C@H](n5cc(NC(=O)c6cnn7ccc(N8C[C@H]9C[C@@H]8CO9)nc67)c(C(F)F)n5)CC4)C[C@H]3F)c21` (stereo partly drawn) [I-36] were 10 to 100 nM and greater than 200 nM.
`C[C@H]1CN(C[C@H]2CC[C@H](n3cc(NC(=O)c4cnn5ccc(N6C[C@H]7C[C@@H]6CO7)nc45)c(C(F)F)n3)CC2)CC[C@@H]1OCC#Cc1cccc2c1n(C)c(=O)n2C1CCC(=O)NC1=O` (stereo partly drawn) [I-37]: the DC50 runs as follows: under setting [1], less than 10 nM; under setting [2], less than 10 nM.
Take `COc1ccc2c(c1C#CCN1CCN(C[C@H]3CC[C@H](n4cc(NC(=O)c5cnn6ccc(N7C[C@H]8C[C@@H]7CO8)nc56)c(C(F)F)n4)CC3)CC1)n(C)c(=O)n2C1CCC(=O)NC1=O` (stereo partly drawn) [I-39]: the DC50 under setting [1] was less than 10 nM and the DC50 under setting [2] is greater than 200 nM.
Taken in the same sequence, the figures for `Cn1c(=O)n(C2CCC(=O)NC2=O)c2cccc(C#CC3CCN(C[C@H]4CC[C@H](n5cc(NC(=O)c6cnn7ccc(N8C[C@H]9C[C@@H]8CO9)nc67)c(C(F)F)n5)CC4)CC3)c21` (stereo partly drawn) [I-40] were less than 10 nM and greater than 200 nM.
`O=C1CCN(c2cncc3c(C#CCO[C@@H]4CCN(C[C@H]5CC[C@H](n6cc(NC(=O)c7cnn8ccc(N9C[C@H]%10C[C@@H]9CO%10)nc78)c(C(F)F)n6)CC5)C[C@@H]4F)cccc23)C(=O)N1` [I-41]: the DC50 runs as follows: under setting [1], less than 10 nM; under setting [2], greater than 200 nM.
Taken in the same sequence, the figures for `C[C@@H]1CN(C[C@H]2CC[C@H](n3cc(NC(=O)c4cnn5ccc(N6C[C@H]7C[C@@H]6CO7)nc45)c(C(F)F)n3)CC2)CCN1CC#Cc1cccc2c1n(C)c(=O)n2C1CCC(=O)NC1=O` (stereo partly drawn) [I-42] were 10 to 100 nM and greater than 200 nM.
